Results published in US11786494B2, “Methods of modulation of branched chain acids and uses thereof” (Baylor College of Medicine, priority 2009, dated 2023).
Where two headings read alike, the source gives them in different places.

Assays:
[1] = system: BCKDC subunit and BDK transcripts; assay: BCKDC transcript levels by quantitative RT-PCR in liver and muscle; format: in vivo, C57B6 mice
Procedure: The mice (n=5) were treated with saline or 50 mg/kg/day of phenylbutyrate divided into three administrations for three consecutive days and after three days of treatment they were sacrificed for analyses.
Since PBA is a known histone deacetylase (HDAC) inhibitor, transcript levels of BCKDC were measured following treatment with PBA using quantitative RT-PCR. Five wild type mice were treated with either placebo or PBA. Following treatment the liver and muscle cells were harvested. RNA was isolated and subject to real time RT-PCR to assess the transcript levels of all the subunits of the BCKDC and regulatory kinase.

[2] = system: E1α-phospho/E1α, E2, BCATm, BCATc; assay: Western blotting of BCKD complex and BCAT isozymes in lymphoblast cells; format: cell-based, human
BCKDC = target: T1, BCKDC (Homo sapiens, UniProt P12694+P21953); assay: Leucine oxidation in lymphoblast cells in presence of CIC; format: cell-based; set-up: Transformed lymphoblast cell lines were available from all 5 MSUD patients and from 2 controls to measure BCKDC activity; endogenous in cells; conditions: control lymphoblasts, 1 mM phenylbutyrate 48 h, 1 mM CIC in the assay
T1 sequence (P12694 46-445): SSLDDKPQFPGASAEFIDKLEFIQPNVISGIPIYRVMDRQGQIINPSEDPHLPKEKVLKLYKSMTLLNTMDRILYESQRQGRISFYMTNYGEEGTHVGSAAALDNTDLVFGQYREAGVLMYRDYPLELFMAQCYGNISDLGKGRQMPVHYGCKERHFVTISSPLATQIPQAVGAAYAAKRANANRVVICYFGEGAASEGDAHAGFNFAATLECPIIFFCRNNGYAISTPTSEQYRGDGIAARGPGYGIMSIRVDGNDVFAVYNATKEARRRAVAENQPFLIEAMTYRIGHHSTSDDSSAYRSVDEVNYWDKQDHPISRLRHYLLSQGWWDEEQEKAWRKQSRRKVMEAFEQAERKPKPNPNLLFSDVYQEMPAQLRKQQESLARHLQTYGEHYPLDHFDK
T1 sequence (P21953 51-392): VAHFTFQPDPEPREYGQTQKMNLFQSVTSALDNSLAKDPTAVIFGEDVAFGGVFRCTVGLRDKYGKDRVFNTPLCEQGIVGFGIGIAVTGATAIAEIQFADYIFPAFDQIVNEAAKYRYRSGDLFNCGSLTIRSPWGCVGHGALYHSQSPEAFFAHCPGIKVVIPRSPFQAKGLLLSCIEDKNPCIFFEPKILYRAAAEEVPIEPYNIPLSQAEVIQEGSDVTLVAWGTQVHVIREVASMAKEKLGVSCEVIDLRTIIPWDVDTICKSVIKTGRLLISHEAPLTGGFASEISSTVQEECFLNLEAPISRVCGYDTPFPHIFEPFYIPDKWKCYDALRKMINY
Procedure: FIGS. 8A-8C. FIGS. 8A and 8B show leucine oxidation in presence of CIC in lymphoblast cells from control subjects (C-660, C-661) and MSUD patients (P-1, -2, -3, -4, -5) untreated or treated with 1 mM phenylbutyrate for 48 h. Leucine oxidation was measured by using radioactive assay as described in Materials and Methods and is expressed in pmol CO2 released/min/mg protein. CIC was added to all reactions in 1 mM concentration. Values are means±SD (n=3), * p≥0.05, **p≥0.01. […] Images are representative of two independent experiments.
Because phenylbutyrate affects E1α phosphorylation state in vivo (see FIG. 5), leucine oxidation was measured in the same cell lines as in FIG. […] with CIC in the assay. […] Changes in BCAT isoenzyme activity also impacts BCKA production, in specific cases. All patient cell lines accumulated more KIC than observed in control cell lines.

BCKDC kinase (BDK) = BCKDC kinase (BDK) (Rattus norvegicus, UniProt Q00972); assay: Protection of E1 from BDK induced phosphorylation and inactivation; format: biochemical; conditions: for kcat, KIC / kcat, KIV / kcat, KMV / Km: E1 decarboxylase activity, [+] Phenylbutyrate^b
Procedure: To determine the effect of phenylbutyrate on individual BCAA catabolic enzymes, activities of mitochondrial branched chain amino transferase (BCATm) and BCKDC enzymes were measured with and without phenylbutyrate using purified recombinant enzymes. BCATm generates the BCKA products that are elevated in MSUD and are the substrates for BCKDC. BCATm activity was measured at pH 8.0 and 298 K as described in Example 2. Kinetics of the E1 decarboxylase reaction with and without phenylbutyrate were determined in the presence of an artificial electron acceptor 2, 6-dichlorophenolindophenol (DCPIP). The assay mixture contained 100 mM potassium phosphate, pH 7.5, 2.0 mM MgCl2, 0.2 mM thiamin diphosphate (ThDP) and 0.1 mM DCPIP. The rate of decarboxylation at 30° C. was measured by monitoring the reduction of the dye at 600 nm (24, 25). For the overall BCKDC activity assay, the enzymes were exchanged into phosphate buffer (30 mM potassium phosphate, pH 7.5) containing 5 mM DTT using a PD-10 column and the enzyme concentrations were calculated from the absorption maxima at 280 nm. The protein complex was reconstituted with E1, lipoylated E2 (lip-E2) and E3 at a molar ratio of 12:1:55, in which lip-E2 exists as a 24-mer. The assay mixture contained 30 mM potassium phosphate pH 7.5, 100 mM NaCl, 3 mM NAD^+, 0.4 mM CoA, 2 mM MgCl2, 2 mM DTT, 0.1% Triton X-100, and 2 mM ThDP. The overall reaction was monitored by formation of NADH at 340 nm. The apparent rate constants (kapp) at different substrate concentrations for all of the above assays were determined from the absorption changes at the individual wavelength maximum. The kapp rate constants were fit using the following equation: kapp=kcat[S]/(Km+[S])
The phosphorylation of E1 was carried out in the phosphorylation reaction mix (30 mM HEPES, pH 7.4, 2 mM DTT, 1.5 mM MgCl2, and 0.2 mM EGTA) with and without addition of phenylbutyrate. E1, E2, and E3 proteins were mixed at 12:1:55 molar ratio in a 0.1 ml reaction mix, and 0.1 μg of maltose-binding protein-tagged rat BCKDC kinase (BDK) was added. The mix was pre-incubated at room temperature for 15 minutes. The phosphorylation reaction was started after addition of 0.4 mM ATP to the reaction mix, and the reaction was terminated at different time points by addition of higher salt concentration. Overall BCKDC activity was measured as described above.

leucine oxidation (BCKDC): increased
phosphorylation and inactivation of E1 in the presence of BCKDC kinase (BCKDC kinase (BDK)): prevent completely
kcat, KIC (BCKDC kinase (BDK); [+] BDK): 0.343 ± 0.0417 s⁻¹
kcat, KIV (BCKDC kinase (BDK); [+] BDK): 0.433 ± 0.0367 s⁻¹
kcat, KMV (BCKDC kinase (BDK); [+] BDK): 0.367 ± 0.03 s⁻¹
Km (BCKDC kinase (BDK); [+] BDK, read-out: Km, KIC): 21 ± 1.9 µM
Km (BCKDC kinase (BDK); [+] BDK, read-out: Km, KIV): 25 ± 2 µM
Km (BCKDC kinase (BDK); [+] BDK, read-out: Km, KMV): 21 ± 3 µM
kcat, KIC (BCKDC kinase (BDK); [−] BDK): 0.33 ± 0.0283 s⁻¹
kcat, KIV (BCKDC kinase (BDK); [−] BDK): 0.467 ± 0.0317 s⁻¹
kcat, KMV (BCKDC kinase (BDK); [−] BDK): 0.333 ± 0.0183 s⁻¹
Km (BCKDC kinase (BDK); [−] BDK, read-out: Km, KIC): 27 ± 2 µM
Km (BCKDC kinase (BDK); [−] BDK, read-out: Km, KIV): 20 ± 3 µM
Km (BCKDC kinase (BDK); [−] BDK, read-out: Km, KMV): 18 ± 2 µM
Compound: O=C([O-])CCCc1ccccc1.[Na+] [phenylbutyrate, sodium 4-phenylbutyrate]
transcript levels of any of the subunits of the BCKDC or of BDK, placebo vs treated ([1]; liver and muscle, 50 mg/kg/day for 3 days (FIG. 6), listed as PBA, 50 mg/kg/day): No significant changes
transcript levels of E1A, E1B, E2 ([1]; liver, p<0.006): significantly reduced
levels of cytosolic isozyme BCATc ([2]; all of the lymphoblasts but patient 5, 1 mM 48 h): appeared to increase
levels of the mitochondrial isozyme BCATm ([2]; both controls and patients 1 through 3, 1 mM 48 h): slightly elevated
phosphorylation state of E1α ([2]; lymphoblasts from controls and patients 1, 2 and 3, 1 mM phenylbutyrate 48 h): Neither the controls nor patients 1, 2 and 3 responded
phosphorylation state of E1α ([2]; lymphoblasts from patients 4 and 5, 1 mM phenylbutyrate 48 h, no apparent change in E1 levels): decrease
